The target in one assay is T1, TRPML3 (Homo sapiens, UniProt Q8TDD5).
T1 construct: expressed in transfected cells
T1 sequence (Q8TDD5 1-553): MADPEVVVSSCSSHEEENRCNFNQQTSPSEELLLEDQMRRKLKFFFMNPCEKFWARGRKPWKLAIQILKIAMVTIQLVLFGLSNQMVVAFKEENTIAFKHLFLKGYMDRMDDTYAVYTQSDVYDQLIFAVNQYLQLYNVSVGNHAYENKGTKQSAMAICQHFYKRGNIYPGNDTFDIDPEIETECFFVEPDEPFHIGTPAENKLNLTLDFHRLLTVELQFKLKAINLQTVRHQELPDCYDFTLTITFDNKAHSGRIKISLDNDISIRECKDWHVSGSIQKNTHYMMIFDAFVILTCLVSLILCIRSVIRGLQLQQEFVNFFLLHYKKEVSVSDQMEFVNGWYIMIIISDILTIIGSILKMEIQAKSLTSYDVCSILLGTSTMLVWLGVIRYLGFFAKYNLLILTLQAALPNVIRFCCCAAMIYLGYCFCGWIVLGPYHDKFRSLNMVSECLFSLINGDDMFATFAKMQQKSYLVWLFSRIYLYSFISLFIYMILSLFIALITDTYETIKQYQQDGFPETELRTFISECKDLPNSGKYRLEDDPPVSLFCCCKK
In words: Fluorescent TRPML3 assay (performed as for TRPML1, substituting the TRPML3 subtype). In kind it is cell-based. Here is the method: (§1) HEK-293 Trex cells were stably transfected with a construct consisting of the human coding sequence for TRPML1 cloned into the […] plasmid pCDNA5 T/O. Mutations were introduced into the TRPML1 sequence to facilitate expression on the cell surface (Silvia Vergarajauregui, Rosa Puertollano, Traffic. 2006 March; 7(3): 337-353). Briefly, the cells are cultured in 150 mm round tissue culture dishes containing 20 mL of media. The day before the assay the cells are rinsed with DPBS-Ca—Mg and then treated briefly with Trypsin-EDTA. The Trypsin-EDTA is diluted with growth media, and cells are counted. 38×10^6 cells are re-plated into 150 mm round tissue culture dishes in media containing 0.5 ug/mL doxycycline to induce expression of hTRPML1.
(§2) The day of the experiment cells are lifted from the plates as above and collected by centrifugation. The cells are then suspended in dye loading buffer consisting of Ringer's solution supplemented with 0.1% Pluronic Acid and 1 micromolar Fluo4-AM dye. Cells are loaded for ˜60 minutes in the dark with occasional mixing. The cells are collected by centrifugation, the loading media aspirated, and the cells resuspended in 25 mL Ringer's solution and incubated ˜60 minutes in the dark. The cells are again collected by centrifugation, rinsed in Ringer's Solution and resuspended to […] in modified Ringer's solution containing 10 mM calcium.
(§3) Compounds are dissolved to a concentration of 10 millimolar with DMSO. Compound plates are created by dispensing compounds into 384 well black wall clear bottom plates (Greiner 781091). Positive and negative controls are included on each plate. Typically, different amounts of each compound are tested ranging from 100 nanoMoles (20 micromolar final concentration) decreasing in half-log steps to 31 picoMoles (6 nanomolar final concentration). Each concentration is typically tested in triplicate.
(§4) 50 microliters of dye-loaded cells are dispensed into each well of the compound assay plate created above. The fluorescence in each well is then determined with an excitation wavelength of 480 nm and an emission wavelength of 540 nm using either a Molecular Devices SpectraMax multimode plate reader or a Hamamatsu FDSS/uCell plate imager.
(§5) The resulting fluorescence for each well is exported as an ascii file and loaded into our LIMS for analysis. The percent activity of each compound at each concentration is determined by comparison to the positive and negative control wells included in each plate.
TRPML2 and TRPML3 Assays Assays for TRPML2 and TRPML3 were performed as above for TRPML1, by substituting the appropriate TRPML2 or TRPML3 subtype for the TRPML1.
(§6) EC50 values were calculated using a non-linear regression of Prism. In the table, “A” indicates an EC50 of less than 100 nM, “B” indicates an EC50 range from 100 nM to 500 nM; “C” indicates an EC50 range from 500 nM to 2 μM; and “D” indicates an EC50 greater than 2 μM.

In another assay the target is TRPML1 (Homo sapiens, UniProt Q9GZU1). Put plainly: Fluorescent TRPML1 assay (Fluo4-AM calcium fluorescence in doxycycline-induced HEK-293 Trex cells). Format: cell-based. Here is the method:
as §1, §2, §3, §4, §5, §6

SMILES strings stand for the structures. Read-outs that look alike come from different tables or passages of the source.

Chain of TRPML1 (Q9GZU1 whole entry L15A/L16A/L577A/L578A, form open): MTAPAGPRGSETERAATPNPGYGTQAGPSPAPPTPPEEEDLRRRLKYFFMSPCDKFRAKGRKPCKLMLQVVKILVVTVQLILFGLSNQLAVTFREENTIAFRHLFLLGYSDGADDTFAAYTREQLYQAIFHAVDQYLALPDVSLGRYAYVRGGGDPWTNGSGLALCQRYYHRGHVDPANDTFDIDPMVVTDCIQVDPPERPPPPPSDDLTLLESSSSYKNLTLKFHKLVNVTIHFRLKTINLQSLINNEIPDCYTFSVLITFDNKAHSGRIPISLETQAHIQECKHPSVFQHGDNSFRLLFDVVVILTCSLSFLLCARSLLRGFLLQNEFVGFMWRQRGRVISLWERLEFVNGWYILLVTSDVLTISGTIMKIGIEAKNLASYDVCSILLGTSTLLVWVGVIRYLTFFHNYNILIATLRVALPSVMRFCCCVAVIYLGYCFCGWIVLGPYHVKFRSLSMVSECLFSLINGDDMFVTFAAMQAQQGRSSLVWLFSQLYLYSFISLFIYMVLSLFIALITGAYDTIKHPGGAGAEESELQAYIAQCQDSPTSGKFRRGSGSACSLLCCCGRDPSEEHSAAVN

Consider `Cc1cn(-c2cncnc2)c2ncnc(N3C[C@@H](C)N(C(=O)OC(C)(C)C)C[C@@H]3C)c12` [Compound 674, tert-butyl (2R,5S)-2,5-dimethyl-4-(5-methyl-7-(pyrimidin-5-yl)-7H-pyrrolo[2,3-d]pyrimidin-4-yl)piperazine-1-carboxylate], for which the EC50 on TRPML3 and on TRPML1 was above 2 µM throughout.

Take `C[C@@H]1CN(c2ncnc3c2c(C(F)F)cn3-c2cc(C#N)ccn2)[C@@H](C)CN1C(=O)OC1(C)CC1` [Compound 613, 1-methylcyclopropyl (2R,5S)-4-(7-(4-cyanopyridin-2-yl)-5-(difluoromethyl)-7H-pyrrolo[2,3-d]pyrimidin-4-yl)-2,5-dimethylpiperazine-1-carboxylate]: the EC50 on TRPML3 and on TRPML1 was below 0.1 µM throughout.

On to `C[C@H]1CCCN1c1cn(-c2cccc(Cl)c2)c2ncnc(N3CCN(C(=O)OC(C)(C)C)C[C@@H]3C)c12` [Compound 316, tert-butyl (S)-4-(7-(3-chlorophenyl)-5-((S)-2-methylpyrrolidin-1-yl)-7H-pyrrolo[2,3-d]pyrimidin-4-yl)-3-methylpiperazine-1-carboxylate], for which the figures for the EC50 on TRPML3 (fluorescent calcium assay) and on TRPML1 (fluorescent calcium assay) were below 0.1 µM and 0.5 to 2 µM, respectively.

For the compound `C[C@@H]1CN(c2ncnc3c2c(N2CCC[C@H]2CO)cn3-c2cccc(Cl)c2)CCN1C(=O)OC(C)(C)C` [Compound 283, tert-butyl (R)-4-(7-(3-chlorophenyl)-5-((S)-2-(hydroxymethyl)pyrrolidin-1-yl)-7H-pyrrolo[2,3-d]pyrimidin-4-yl)-2-methylpiperazine-1-carboxylate], the EC50 (in general, the midpoint of the concentration-response curve) at TRPML3 (fluorescent calcium assay) was 0.1 to 0.5 µM; on TRPML1 (fluorescent calcium assay) it was above 2 µM.

For `CCOC(=O)N1CCN(c2ncnc3c2c(C2CC2)cn3-c2cncc(C)c2)[C@@H](C)C1` [Compound 153, ethyl (S)-4-(5-cyclopropyl-7-(5-methylpyridin-3-yl)-7H-pyrrolo[2,3-d]pyrimidin-4-yl)-3-methylpiperazine-1-carboxylate], the EC50 at TRPML3 (fluorescent calcium assay) and at TRPML1 (fluorescent calcium assay) was above 2 µM in each case.

Turning to `C[C@@H]1CN(C(=O)OC(C)(C)C)CCN1c1ncnc2c1c(C1CC1)cn2-c1cc(C#N)ccn1` [Compound 393, tert-butyl (R)-4-(7-(4-cyanopyridin-2-yl)-5-cyclopropyl-7H-pyrrolo [2,3-d]pyrimidin-4-yl)-3-methylpiperazine-1-carboxylate], the EC50 on TRPML3 (fluorescent calcium assay) and on TRPML1 (fluorescent calcium assay) was below 0.1 µM throughout.

`CC(C)(C)OC(=O)N1CC2(C1)CN(c1ncnc3c1c(C1CC1)cn3-c1cc(Cl)cc(Cl)c1)C2` [Compound 464, tert-butyl 6-(5-cyclopropyl-7-(3,5-dichlorophenyl)-7H-pyrrolo[2,3-d]pyrimidin-4-yl)-2,6-diazaspiro[3.3]heptane-2-carboxylate]: the EC50 fell in the range of 0.1 to 0.5 µM at TRPML3 (fluorescent calcium assay) and 0.5 to 2 µM at TRPML1 (fluorescent calcium assay).

Regarding `C[C@H]1CN(C(=O)OCC(F)(F)F)CCN1c1ncnc2c1c(-c1ccccn1)cn2-c1cc(C#N)ccn1` [Compound 372, 2,2,2-trifluoroethyl (S)-4-(7-(4-cyanopyridin-2-yl)-5-(pyridin-2-yl)-7H-pyrrolo[2,3-d]pyrimidin-4-yl)-3-methylpiperazine-1-carboxylate], the EC50 at TRPML3 (fluorescent calcium assay) and on TRPML1 (fluorescent calcium assay) was 0.1 to 0.5 µM throughout.

For `C[C@@H]1CN(c2ncnc3c2c(C2CC2)cn3-c2cc(C#N)ccn2)[C@@H](C)CN1C(=O)OC(C)(C)C` [Compound 394, tert-butyl (2R,5S)-4-(7-(4-cyanopyridin-2-yl)-5-cyclopropyl-7H-pyrrolo[2,3-d]pyrimidin-4-yl)-2,5-dimethylpiperazine-1-carboxylate], the EC50 on TRPML3 (fluorescent calcium assay) and at TRPML1 (fluorescent calcium assay) was below 0.1 µM in each case.

Regarding `C[C@H]1CN(C(=O)OC(C)(C)C)CCN1c1ncnc2c1c(C1CC1)cn2C1CCCC(F)(F)C1` (stereo partly drawn) [Compound 382, tert-butyl (3S)-4-(5-cyclopropyl-7-(3,3-difluorocyclohexyl)-7H-pyrrolo[2,3-d]pyrimidin-4-yl)-3-methylpiperazine-1-carboxylate], the EC50 on TRPML3 (fluorescent calcium assay) and on TRPML1 (fluorescent calcium assay) was 0.5 to 2 µM throughout.

The values above are taken from patent US20250136606A1, “MODULATORS OF TRPML, THEIR COMPOSITIONS AND METHODS OF USE” (Caraway Therapeutics, Inc., priority 2021, published 2025).
